Among the data in PubChem BioAssay (NCI) are GI50 and TGI values, retold here.

Structures are written as SMILES.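 Five compound concentrations were applied to cells in 96-well plates for 48 hours; endpoints were derived by simple linear interpolation of the resulting dose-response curve. Here, GI50 denotes the concentration required for 50% inhibition of growth. At the TGI there is no net growth.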

Some test systems named below: SW-620 colon; HS 578T breast; SF-268 CNS; COLO 205 colon; NCI-H460 lung; SK-MEL-2 melanoma; RPMI-8226 leukemia; SK-MEL-28 melanoma.
What all share (assay): NCI tumour cell line growth inhibition, 48 h

As to `CNC(=O)c1cn(C[C@H](F)CCc2ccc(NC(=O)Cc3cc(OC4CC(F)(F)C4)cc(C)n3)nn2)nn1`, the GI50 in the experiment on SW-620 colon was greater than 100000 nM; with HS 578T breast it was 5.37 µM; in the experiment with SF-268 CNS, greater than 100 µM; with COLO 205 colon it was greater than 100 µM; in the experiment with NCI-H460 lung, greater than 100 µM; in the experiment with SK-MEL-2 melanoma, greater than 100 µM. Also, the GI50 is 5.65 µM in the experiment with RPMI-8226 leukemia and greater than 100 µM in the experiment with SK-MEL-28 melanoma. Further, the TGI in the experiment with SW-620 colon, in the experiment on HS 578T breast, in the experiment on SF-268 CNS, in the experiment with COLO 205 colon, in the experiment with NCI-H460 lung and in the experiment on SK-MEL-2 melanoma was greater than 100 µM each time. Moreover, the TGI in the experiment on RPMI-8226 leukemia and with SK-MEL-28 melanoma was greater than 100 µM each time.

For the molecule `CN1CCN(Cc2ccc(NC(=O)c3ccc(C(C)(C)C)c(C#Cc4cnc5cccnn45)c3)cc2C(F)(F)F)CC1`, the GI50 was 2040 nM with SW-620 colon; 10.4 µM with HS 578T breast; 1.87 µM in the experiment on SF-268 CNS; 1.8 µM in the experiment with COLO 205 colon; 2.13 µM with NCI-H460 lung; 8.8 µM in the experiment on SK-MEL-2 melanoma. Moreover, the GI50 in the experiment on RPMI-8226 leukemia is 2.54 µM; in the experiment with SK-MEL-28 melanoma, 1.93 µM. Moreover, the TGI was found to be 4.09 µM in the experiment on SW-620 colon; 39.2 µM with HS 578T breast; 3.82 µM with SF-268 CNS; 3.43 µM with COLO 205 colon; 4.52 µM with NCI-H460 lung; 22.5 µM in the experiment with SK-MEL-2 melanoma. Also, the TGI is 6.11 µM in the experiment with RPMI-8226 leukemia and 3.73 µM in the experiment with SK-MEL-28 melanoma.

`Cc1ccc(-c2nc(C(Cl)Cl)n3nc(-c4ccccc4)cc3n2)cc1`: the GI50 in the experiment with SW-620 colon is 392 nM; in the experiment with HS 578T breast, 1.2 µM; with SF-268 CNS it was 1.06 µM; in the experiment on NCI-H460 lung it was 0.273 µM; in the experiment with RPMI-8226 leukemia, 0.499 µM. Further, the TGI with SW-620 colon was determined as 2.35 µM; in the experiment on HS 578T breast, 3.96 µM; in the experiment with SF-268 CNS, 4.82 µM; in the experiment with NCI-H460 lung, 1.05 µM; with RPMI-8226 leukemia it was 3.11 µM.

On to `CCCCCC(C(O)C#N)C(O)(C(F)(F)F)C(F)(F)F` (configuration not stated), for which the TGI with SW-620 colon, in the experiment on HS 578T breast, in the experiment on SF-268 CNS, in the experiment on COLO 205 colon, in the experiment with RPMI-8226 leukemia and with SK-MEL-28 melanoma was greater than 10 µM throughout.

As for `Cc1c(-c2nc(N)nc(C3CC3)c2C)nc(N)nc1C1CC1`, the TGI with SW-620 colon, in the experiment on HS 578T breast, in the experiment on SF-268 CNS, with COLO 205 colon, in the experiment on NCI-H460 lung and with SK-MEL-2 melanoma was greater than 100 µM in each case. In addition, the TGI in the experiment on RPMI-8226 leukemia and in the experiment on SK-MEL-28 melanoma was greater than 100 µM in each case.

On to `O=C(N/N=C/c1ccc(Cl)cc1Cl)c1ccccc1Nc1cccc(C(F)(F)F)c1`, for which the GI50 with SW-620 colon was 8630 nM; in the experiment with HS 578T breast, 4.1 µM; with SF-268 CNS it was 3.38 µM; in the experiment with COLO 205 colon it was 2.73 µM; with NCI-H460 lung, 6.98 µM; with SK-MEL-2 melanoma, 2.76 µM. Further, the GI50 in the experiment with RPMI-8226 leukemia is 2.87 µM; in the experiment with SK-MEL-28 melanoma, 28.8 µM. Further, the TGI in the experiment on SW-620 colon was greater than 100 µM; with HS 578T breast, 44.5 µM; in the experiment on SF-268 CNS it was 13.3 µM; in the experiment on COLO 205 colon, 9.37 µM; in the experiment with NCI-H460 lung it was greater than 100 µM; with SK-MEL-2 melanoma, 10.7 µM. The TGI in the experiment with RPMI-8226 leukemia was 46.3 µM; with SK-MEL-28 melanoma, greater than 100 µM.

With `C=C1CC(COc2cc(Cl)nc(N)n2)C1`, the GI50 is 45700 nM with SW-620 colon; 49.9 µM with HS 578T breast; 70.4 µM with SF-268 CNS; 21.1 µM with COLO 205 colon; 55.6 µM in the experiment on NCI-H460 lung; 31.4 µM in the experiment on SK-MEL-2 melanoma. Also, the GI50 in the experiment with RPMI-8226 leukemia was 21.7 µM. The TGI in the experiment on COLO 205 colon and in the experiment with RPMI-8226 leukemia was 60.8 µM in each case.

Take `CC1(C)CCc2cc3c(cc2O1)OCCC3=O`: the TGI in the experiment on SW-620 colon, in the experiment on SF-268 CNS, in the experiment with COLO 205 colon, in the experiment on NCI-H460 lung and in the experiment with RPMI-8226 leukemia was greater than 100 µM throughout.

Consider `Cc1sc(C)c(-c2ccc(CO)o2)c1-c1ccc(CO)o1`, for which the GI50 with SW-620 colon was 499 nM; in the experiment on HS 578T breast, 43 µM; in the experiment on SF-268 CNS, 91.1 µM; in the experiment with NCI-H460 lung it was 0.124 µM; in the experiment on SK-MEL-2 melanoma, 5.03 µM; with RPMI-8226 leukemia, 13.5 µM. The GI50 with SK-MEL-28 melanoma was greater than 100 µM. The TGI in the experiment on SW-620 colon, with HS 578T breast, with SF-268 CNS, with NCI-H460 lung, in the experiment with SK-MEL-2 melanoma and with RPMI-8226 leukemia was greater than 100 µM throughout. Further, the TGI in the experiment with SK-MEL-28 melanoma is greater than 100 µM.

`CS(=O)(=O)Nc1ccc(-c2ccc3c(NC(=O)C4CC4)n[nH]c3c2)cc1`: the GI50 with SW-620 colon is greater than 25000 nM; with HS 578T breast, 24.4 µM; with SF-268 CNS, greater than 25 µM; in the experiment on COLO 205 colon, greater than 25 µM; in the experiment with NCI-H460 lung it was greater than 22.5 µM; in the experiment with SK-MEL-2 melanoma, greater than 18.5 µM. In addition, the GI50 with RPMI-8226 leukemia is 13.7 µM; in the experiment with SK-MEL-28 melanoma, greater than 25 µM. Further, the TGI in the experiment with SW-620 colon, in the experiment with HS 578T breast, in the experiment on SF-268 CNS, with COLO 205 colon, with NCI-H460 lung and in the experiment with SK-MEL-2 melanoma was greater than 25 µM in each case. For the same molecule, the TGI with RPMI-8226 leukemia and in the experiment on SK-MEL-28 melanoma was greater than 25 µM in each case.

Regarding `FC(F)(F)c1ccc2c(Nc3cccc(C4CC(c5ccccc5)=NN4c4ccc(Cl)cc4)c3)ccnc2c1` (configuration not stated), the GI50 in the experiment on SW-620 colon was 2790 nM; in the experiment on HS 578T breast, 4.43 µM; with SF-268 CNS, 3.35 µM; in the experiment on COLO 205 colon, 10.7 µM; in the experiment on NCI-H460 lung it was 4.08 µM; in the experiment on SK-MEL-2 melanoma, 15.1 µM. The GI50 in the experiment on RPMI-8226 leukemia was 2.3 µM; in the experiment with SK-MEL-28 melanoma, 4.54 µM. For the same molecule, the TGI is 8.34 µM with SW-620 colon; 43.2 µM with HS 578T breast; 21.5 µM with SF-268 CNS; greater than 100 µM in the experiment with COLO 205 colon; 17.2 µM in the experiment with NCI-H460 lung; 42.9 µM in the experiment on SK-MEL-2 melanoma. The TGI in the experiment on RPMI-8226 leukemia turned out to be 6.46 µM; in the experiment with SK-MEL-28 melanoma, 18.3 µM.
